This passage reports IC50 results from patent US20130303507A1 (Novartis AG, priority 2011, published 2013).

The target of the assay is Cdk9/cyclinT1 (Homo sapiens, UniProt P50750). Description: Cdk9/cyclinT1 IMAP protocol (fluorescence polarization). As to conditions: IC-50, CDK9; lower limit of assay 0.0005 micromolar.
Cdk9/cyclinT1, sequence (P50750 whole entry): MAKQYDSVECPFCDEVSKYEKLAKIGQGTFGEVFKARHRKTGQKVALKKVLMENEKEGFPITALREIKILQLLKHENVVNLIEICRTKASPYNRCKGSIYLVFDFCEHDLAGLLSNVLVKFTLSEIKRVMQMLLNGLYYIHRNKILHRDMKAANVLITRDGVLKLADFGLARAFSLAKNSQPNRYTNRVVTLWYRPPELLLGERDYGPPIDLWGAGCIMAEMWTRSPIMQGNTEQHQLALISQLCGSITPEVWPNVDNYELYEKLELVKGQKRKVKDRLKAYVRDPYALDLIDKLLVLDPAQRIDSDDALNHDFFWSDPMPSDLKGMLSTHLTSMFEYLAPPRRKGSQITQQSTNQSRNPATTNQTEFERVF
Cdk9/cyclinT1, sequence (O60563 whole entry partner): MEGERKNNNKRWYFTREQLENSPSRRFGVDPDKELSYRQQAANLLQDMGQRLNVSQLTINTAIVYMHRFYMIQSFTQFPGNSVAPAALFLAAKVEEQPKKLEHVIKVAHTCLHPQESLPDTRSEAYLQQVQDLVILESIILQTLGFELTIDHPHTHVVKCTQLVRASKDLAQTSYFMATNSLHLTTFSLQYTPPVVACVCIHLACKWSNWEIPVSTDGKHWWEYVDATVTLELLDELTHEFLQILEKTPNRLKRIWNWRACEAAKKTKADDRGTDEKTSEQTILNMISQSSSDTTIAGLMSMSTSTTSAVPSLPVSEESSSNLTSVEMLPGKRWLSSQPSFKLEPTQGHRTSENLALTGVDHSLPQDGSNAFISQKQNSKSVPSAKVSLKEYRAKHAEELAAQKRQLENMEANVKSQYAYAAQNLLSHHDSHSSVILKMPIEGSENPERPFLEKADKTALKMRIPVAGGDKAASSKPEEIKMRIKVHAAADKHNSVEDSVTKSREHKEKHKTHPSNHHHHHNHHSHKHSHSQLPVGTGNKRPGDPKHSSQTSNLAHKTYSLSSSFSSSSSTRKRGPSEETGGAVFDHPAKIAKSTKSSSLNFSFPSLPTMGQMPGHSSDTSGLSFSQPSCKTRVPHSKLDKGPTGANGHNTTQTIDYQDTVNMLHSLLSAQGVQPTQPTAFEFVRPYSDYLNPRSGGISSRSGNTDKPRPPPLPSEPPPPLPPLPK

For the compound `COC[C@]1(O)CC[C@@H](Nc2cc(-c3cccc(NCC4(C#N)CCOCC4)n3)c(Cl)cn2)CC1` [Compound 448, 4-(((5′-chloro-2′-((cis-4-hydroxy-4-(methoxymethyl)cyclohexyl)amino)-[2,4′-bipyridin]-6-yl)amino)methyl)tetrahydro-2H-pyran-4-carbonitrile], the IC50 was 1.1 nM. That is a single-digit nanomolar value. Regarding `N#CC1(CNc2cccc(-c3cc(N[C@H]4CC[C@H](NC[C@H]5CCCO5)CC4)ncc3Cl)n2)CCOCC1` [Compound 473, 4-(((5′-chloro-2′-((trans-4-((((R)-tetrahydrofuran-2-yl)methyl)amino)cyclohexyl)amino)-[2,4′-bipyridin]-6-yl)amino)methyl)tetrahydro-2H-pyran-4-carbonitrile], the IC50 is under 0.5 nM. In the case of `NC(=O)C1(CNc2cccc(-c3cc(N[C@H]4CC[C@H](N)CC4)ncc3F)n2)CCOCC1` [Compound 485, 4-(((2′-((trans-4-aminocyclohexyl)amino)-5′-fluoro-[2,4′-bipyridin]-6-yl)amino)methyl)tetrahydro-2H-pyran-4-carboxamide] it was 1.8 nM; in that of `N#CC1(CNc2cccc(-c3cc(N[C@H]4CC[C@H](NC[C@@H]5CCCO5)CC4)ncc3Cl)n2)CCOCC1` [Compound 472, 4-(((5′-chloro-2′-((trans-4-((((S)-tetrahydrofuran-2-yl)methyl)amino)cyclohexyl)amino)-[2,4′-bipyridin]-6-yl)amino)methyl)tetrahydro-2H-pyran-4-carbonitrile], under 0.5 nM. Compound `N#CC1(CNc2cccc(-c3cc(NC4CCNCC4)ncc3Cl)n2)CCOCC1` [Example 402] had an IC50 of 4.8 nM. Consider `CO[C@H]1CCN([C@H]2CC[C@@H](Nc3cc(-c4cccc(NCC5(C#N)CCOCC5)n4)c(Cl)cn3)CC2)C1` [Compound 476, 4-(((5′-chloro-2′-((cis-4-((S)-3-methoxypyrrolidin-1-yl)cyclohexyl)amino)-[2,4′-bipyridin]-6-yl)amino)methyl)tetrahydro-2H-pyran-4-carbonitrile], for which the midpoint of inhibition, the IC50, lay at 5.4 nM. Take `CC(C)N[C@@H]1CC[C@@H](Nc2cc(-c3cccc(NCC4(C#N)CCOCC4)n3)c(Cl)cn2)C1` (relative stereo) [Example 408]: the IC50 worked out at 0.6 nM. Compound `COC[C@H](C)N[C@H]1CC[C@H](Nc2cc(-c3ccc(F)c(NC[C@H]4CCOC(C)(C)C4)n3)c(Cl)cn2)CC1` [Compound 463, 5′-chloro-N6-(((S)-2,2-dimethyltetrahydro-2H-pyran-4-yl)methyl)-5-fluoro-N2′-(trans-4-(((S)-1-methoxypropan-2-yl)amino)cyclohexyl)-[2,4′-bipyridine]-2′,6-diamine] gave an IC50 of 1.9 nM. This IC50 lies about 3.2-fold higher than the previous one.

`CO[C@@H]1CCN([C@H]2CC[C@@H](Nc3cc(-c4cccc(NCC5(C#N)CCOCC5)n4)c(Cl)cn3)CC2)C1` [Compound 478, 4-(((5′-chloro-2′-((cis-4-((R)-3-methoxypyrrolidin-1-yl)cyclohexyl)amino)-[2,4′-bipyridin]-6-yl)amino)methyl)tetrahydro-2H-pyran-4-carbonitrile] registered an IC50 of 19 nM. This IC50 lies about 10-fold higher than the previous one. In the case of `N#CC1(CNc2cccc(-c3cc(N[C@H]4CC[C@H](NC[C@@H](O)C(F)(F)F)CC4)ncc3Cl)n2)CCOCC1` [Compound 491, 4-(((5′-chloro-2′-((trans-4-(((R)-3,3,3-trifluoro-2-hydroxypropyl)amino)cyclohexyl)amino)-[2,4′-bipyridin]-6-yl)amino)methyl)tetrahydro-2H-pyran-4-carbonitrile] it was under 0.5 nM; in that of `N#CC1(CNc2cccc(-c3cc(N[C@H]4CC[C@H](NCCC(F)(F)F)CC4)ncc3Cl)n2)CCOCC1` [Compound 433, 4-(((5′-chloro-2′-((trans-4-((3,3,3-trifluoropropyl)amino)cyclohexyl)amino)-[2,4′-bipyridin]-6-yl)amino)methyl)tetrahydro-2H-pyran-4-carbonitrile], 0.6 nM. In the case of `COC[C@@H](C)N[C@H]1CC[C@H](Nc2cc(-c3cccc(NCCC#N)n3)c(Cl)cn2)CC1` [Compound 445, 3-((5′-chloro-2′-((trans-4-(((R)-1-methoxypropan-2-yl)amino)cyclohexyl)amino)-[2,4′-bipyridin]-6-yl)amino)propanenitrile] it was 2.1 nM; in that of `N#CC1(CNc2cccc(-c3cc(N[C@H]4CC[C@@H](N)CC4)ncc3Cl)n2)CCOCC1` [Compound 465, 4-(((2′-((cis-4-aminocyclohexyl)amino)-5′-chloro-[2,4′-bipyridin]-6-yl)amino)methyl)tetrahydro-2H-pyran-4-carbonitrile], 1.2 nM.

For the compound `COCCO[C@H]1CC[C@H](Nc2cc(-c3cccc(NCC4(C#N)CCOCC4)n3)c(Cl)cn2)CC1` [Compound 415, 4-(((5′-chloro-2′-((trans-4-(2-methoxyethoxy)cyclohexyl)amino)-[2,4′-bipyridin]-6-yl)amino)methyl)tetrahydro-2H-pyran-4-carbonitrile], the concentration for half-maximal inhibition (IC50) worked out at 4.9 nM. `N#CCCN[C@H]1CC[C@H](Nc2cc(-c3cccc(NCC4CCOCC4)n3)c(Cl)cn2)CC1` [Compound 444, 3-((trans-4-((5′-chloro-6-(((tetrahydro-2H-pyran-4-yl)methyl)amino)-[2,4′-bipyridin]-2′-yl)amino)cyclohexyl)amino) propanenitrile] showed an IC50 of 2.4 nM. This IC50 lies about 2-fold lower than the previous one. With `CN(C)C(=O)CN(CC(=O)N(C)C)[C@H]1CC[C@H](Nc2cc(-c3cccc(NCC4(C#N)CCOCC4)n3)c(Cl)cn2)CC1` [Compound 421, 2,2′-((trans-4-((5′-chloro-6-(((4-cyanotetrahydro-2H-pyran-4-yl)methyl)amino)-[2,4′-bipyridin]-2′-yl)amino)cyclohexyl)azanediyl) bis(N,N-dimethylacetamide)], the IC50 amounted to 2.7 nM. In turn, `CNC(=O)CN[C@H]1CC[C@H](Nc2cc(-c3cccc(NCC4(C#N)CCOCC4)n3)c(Cl)cn2)CC1` [Compound 420, 2-((trans-4-((5′-chloro-6-(((4-cyanotetrahydro-2H-pyran-4-yl)methyl)amino)-[2,4′-bipyridin]-2′-yl)amino)cyclohexyl)amino)-N-methylacetamide] had an IC50 of under 0.5 nM. Turning to `CN(C)C(=O)NC[C@H]1CC[C@H](Nc2cc(-c3cccc(NCC4(C#N)CCOCC4)n3)c(Cl)cn2)CC1` [Compound 499, 3-((trans-4-((5′-chloro-6-(((4-cyanotetrahydro-2H-pyran-4-yl)methyl)amino)-[2,4′-bipyridin]-2′-yl)amino)cyclohexyl)methyl)-1,1-dimethylurea], the concentration for half-maximal inhibition (IC50) was 0.6 nM. `N#CC1(CNc2cccc(-c3cc(N[C@@H]4CC[C@@H](NC5CCOC5)C4)ncc3Cl)n2)CCOCC1` (stereo partly drawn) [Compound 411, 4-(((5′-chloro-2′-(((1R,3R)-3-((tetrahydrofuran-3-yl)amino)cyclopentyl)amino)-[2,4′-bipyridin]-6-yl)amino)methyl)tetrahydro-2H-pyran-4-carbonitrile] showed an IC50 of 1.8 nM. The value for `N#CC1(CNc2cccc(-c3cc(N[C@H]4CC[C@H](N5CCCOCC5)CC4)ncc3Cl)n2)CCOCC1` [Compound 428, 4-(((2′-((trans-4-(1,4-oxazepan-4-yl)cyclohexyl)amino)-5′-chloro-[2,4′-bipyridin]-6-yl)amino)methyl)tetrahydro-2H-pyran-4-carbonitrile] was 0.6 nM.
